Test results from US12306194B2, “Reagent for fluorescence imaging of lipid droplets in cell and tissue” (NATIONAL UNIVERSITY CORPORATION GUNMA UNIVERSITY, priority 2019, dated 2025).

What was measured:
[1] = Measurement of fluorescence lifetime in solvents; assay type: physicochemical
Protocol: The fluorescence lifetime (τf) of each compound in each solvent was measured using a compact fluorescence lifetime measurement apparatus (Quntaurus-Tau, manufactured by Hamamatsu Photonics K.K.).

[2] = Measurement of maximum absorption wavelength, maximum fluorescence wavelength and fluorescence quantum yield in solvents; assay type: physicochemical
Protocol: Using a luminescent quantum yield measurement apparatus ([…]-01, manufactured by Hamamatsu Photonics K.K.), the maximum absorption wavelength (λabs/nm), the maximum fluorescence wavelength (λflu/nm), and the fluorescence quantum yield (Φf) of the compound in each solvent were measured. The absorption spectrum was measured using an ultraviolet and visible spectrophotometer (Ubest-550, manufactured by JASCO Corporation), and the fluorescence emission spectrum was measured using a fluorescence spectrophotometer (F-7000, manufactured by Hitachi, Ltd.)

[3] = test system: 3T3-L1 cells (adipocytes); assay: Intracellular retention property in 3T3-L1 cells; assay type: cell-based
Protocol: (§1) Using a fluorescence microscope (IX71, manufactured by Olympus Corporation), fluorescence imaging images of cells were acquired over time, and the photostability (It/I0) and the retention property were measured.
For evaluation of the intracellular retention property of each reagent, each fluorescent reagent was added to 3T3-L1 cells (adipocytes) to a final concentration of 100 nM (for Lipi-Green, 500 nM), and imaging images were acquired after 30 minutes of culture and 24 hours after washing away of the reagent.

[4] = test system: lipid droplets in HeLa cells; assay: Fluorescence imaging of lipid droplets in oleic acid-treated HeLa cells; assay type: cell-based
Text: Since LipiDye requires use of an excitation wavelength of about 405 nm, there is a concern about phototoxicity to cells in cases of long observation.

[5] = test system: 3T3-L1 cells (adipocytes); assay: Intracellular photostability under excitation light in 3T3-L1 cells; assay type: cell-based; settings: summary grade, Table 3
Protocol: as §1
The photostability and the retention property are important factors in long-term measurement for, for example, tracing the processes of formation, fusion, and degradation of lipid droplets. Each fluorescent reagent was added to 3T3-L1 cells (adipocytes) to a final concentration of 100 nM, and the cells were cultured for 30 minutes. After washing the cells, the cells were irradiated with an excitation light required for imaging (450 to 500 nm; for LipiDye, an excitation wavelength of 400 to 440 nm), to evaluate the photostability. By regarding the time immediately after the irradiation as Second 0, imaging images were acquired at 20-second intervals for analysis of the image intensity.

[6] = 100 nM (Lipi-Green 500 nM), 3T3-L1 cells, 24 hours after washing away of the reagent

| Structure (SMILES) | τf (fluorescence lifetime) ([1]; in Bu2O (dibutyl ether)) | τf (fluorescence lifetime) ([1]; in MeCN) | Φf (fluorescence quantum yield) ([2]; in Bu2O (dibutyl ether)) | λmax abs (maximum absorption wavelength) ([2]; in Bu2O (dibutyl ether)) | λmax flu (maximum fluorescence wavelength) ([2]; in Bu2O (dibutyl ether)) | Φf (fluorescence quantum yield) ([2]; in MeCN) | λmax abs (maximum absorption wavelength) ([2]; in MeCN) | λmax flu (maximum fluorescence wavelength) ([2]; in MeCN) | intracellular retention property [3, 6] | Brightness in cells ([4]; summary grade, Table 3) | Selectivity for lipid droplets ([4]; summary grade, Table 3) | intracellular retention property ([3]; summary grade, Table 3) | imaging of lipid droplets / lipid droplet selectivity in HeLa cells ([4]; 100 nM reagent, 30 minutes, 400 μM oleic acid 48 hours) | fluorescence intensity of HeLa cells ([4]; 100 nM reagent, 30 minutes, compared with BODIPY493/503 or Lipi Green) | Photostability [5] |
| --- | --- | --- | --- | --- | --- | --- | --- | --- | --- | --- | --- | --- | --- | --- | --- |
| CCN(CC)c1ccc2cc3cc(-c4nc5ccccc5n4C)c(=O)oc3cc2c1 [PC6NMe, 8-(Diethylamino)-3-(1-methyl-1H-benzo[d]imidazol-2-yl)-2H-benzo[g]chromen-2-one] | 3.53 ns | 4.08 ns | 0.67 | 438 nm | 512 nm | 0.77 | 449 nm | 590 nm |  |  |  |  |  |  |  |
| CCN(CC)c1ccc2cc3cc(-c4nc5ccccc5[nH]4)c(=O)oc3cc2c1 [PC6NH, 3-(1H-Benzo[d]imidazol-2-yl)-8-(diethylamino)-2H-benzo[g]chromen-2-one] | 2.79 ns | 3.78 ns | 0.89 | 458 nm | 523 nm | 0.82 | 477 nm | 604 nm |  |  |  |  |  |  |  |
| CC1=CC(C)=[N+]2C1=C(C)c1c(C)cc(C)n1[B-]2(F)F [BODIPY493/503] |  |  |  |  |  |  |  |  | remarkable decreases in the fluorescence intensity | Δ | ◯ |  |  |  |  |
| CCN(CC)c1ccc2nc3c4ccccc4c(=O)cc-3oc2c1 [Nile Red] |  |  |  |  |  |  |  |  | remarkable decreases in the fluorescence intensity | ◯ |  | Δ | low lipid droplet selectivity | higher fluorescence intensities | Δ |
| CCN(CC)c1ccc2cc3cc(-c4nc5ccccc5o4)c(=O)oc3cc2c1 [PC6O, 3-(Benzo[d]oxazol-2-yl)-8-(diethylamino)-2H-benzo[g]chromen-2-one] | 2.83 ns | 3.70 ns | 0.86 | 460 nm | 530 nm | 0.80 | 478 nm | 613 nm |  |  |  |  |  |  |  |
